The target of experiment [1] is T1, PDIA1 (Homo sapiens, UniProt P07237).
T1 construct: The mature human PDIA1 with an N-terminal His6x-tag was expressed and purified; His6 (N); made in house
Put plainly: Intrinsic tryptophan fluorescence quenching. The class given is binding. As for the experimental part: (§1) In a previous article, we evaluated the ability of punicalagin to interact with PDIA1 and PDIA3 [40]. In this study, the results previously obtained were compared with those obtained using punicalin. The protein–ligand interaction was evaluated by intrinsic quenching analysis due to the presence, in both proteins, of aromatic amino acids, among which tryptophan residues represent the main source. Quenching analysis was performed on PDIA1 and PDIA3, in the reduced form, by adding increasing concentrations of punicalin and recording the fluorescence spectra of both proteins. […] Quenching of intrinsic tryptophan fluorescence of both proteins was assessed using the Stern–Volmer equation, as previously reported. To further characterize the binding process, fluorescence data were analyzed using the equation described by Bi et al. and the reiterative calculation process described by Sun et al., providing an estimated value of the dissociation constant (Kd). The values of the Stern–Volmer constant (KSV) and the Kd obtained for punicalin are summarized in Table 1 and compared with those obtained for punicalagin [40]. The comparison of the results confirms that punicalin can bind both PDIs, although showing a slightly lesser affinity with respect to punicalagin.
(§2) The mature recombinant form (devoid of the N-terminal […]) of the human PDIA3 protein was expressed and purified according to the procedure previously described. […] In both cases, protein purification was evaluated by SDS-PAGE and Coomassie Blue staining, while the concentration was spectrophotometrically estimated using the extinction coefficient (PDIA3 in the reduced form, ε280 = 44,810 M^−1cm^−1; PDIA1 in the reduced form, ε280 = 45,567 M^−1cm^−1).
(§3) Protein–ligand interactions were evaluated by titration of intrinsic fluorescence quenching. Protein mission spectra were recorded by a SPEX-FluoroMax spectrofluorometer (Horiba Scientific, Piscataway, NJ, USA) from 300 to 400 nm, with an excitation wavelength set at 290 nm, emission slit set width, a 2 nm bandpass, and a scan speed set at 120 nm min^−1. […] The emission spectrum of the protein was recorded and the fluorescence intensities at 338 nm, obtained in at least three independent titration experiments, were used for quenching analyses, as previously described. Quenching of intrinsic tryptophan fluorescence at 338 nm was analyzed by the Stern–Volmer equation (Fo/F = 1 + KSV[L]), where F and Fo are the fluorescence intensity, respectively with or without ligand (L), and KSV is the Stern–Volmer constant value. Fluorescence data at 338 nm were also analyzed using the equation described by Bi et al. and the reiterative calculation process described by Sun et al., providing an estimated value of Kd.

A further experiment concerns the target T2, PDIA3 (Homo sapiens, UniProt P30101).
T2 construct: The mature recombinant form (devoid of the N-terminal […]) of the human PDIA3 protein was expressed and purified; made in house
T2 sequence (P30101 25-505): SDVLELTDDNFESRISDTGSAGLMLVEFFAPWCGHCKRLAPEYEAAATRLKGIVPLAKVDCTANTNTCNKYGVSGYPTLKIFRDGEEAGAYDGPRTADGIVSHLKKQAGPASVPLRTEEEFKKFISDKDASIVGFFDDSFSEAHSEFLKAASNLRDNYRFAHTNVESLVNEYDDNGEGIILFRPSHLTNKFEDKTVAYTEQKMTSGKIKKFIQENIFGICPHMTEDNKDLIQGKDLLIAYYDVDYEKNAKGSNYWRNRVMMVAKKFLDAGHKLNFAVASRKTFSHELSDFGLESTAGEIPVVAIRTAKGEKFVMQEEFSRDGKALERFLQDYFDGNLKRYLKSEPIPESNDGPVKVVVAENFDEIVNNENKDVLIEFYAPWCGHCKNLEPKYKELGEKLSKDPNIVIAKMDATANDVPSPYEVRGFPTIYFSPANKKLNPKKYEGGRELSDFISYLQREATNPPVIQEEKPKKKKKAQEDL
Put plainly: Intrinsic tryptophan fluorescence quenching. The class given is binding. The procedure: as §1, §2, §3

The target in experiment [2] is T1, PDIA1. Put plainly: Insulin turbidity assay, disulfide reductase activity. In kind it is biochemical. Particulars: insulin substrate, PDIA1 800 nM, reducing conditions. The procedure: To further evaluate the inhibitory effect of punicalin and punicalagin on the enzymatic activity of the two proteins, we performed a different assay using insulin, a physiologically more appropriate substrate. The results obtained are reported in Figure 4 and show again a lesser inhibitory effect of punicalin compared to punicalagin, as observed with the glutathione-based assay.
PDI disulfide reductase activity was assayed by measuring the reduction of insulin catalyzed by PDIs with DTT. A 50 μM stock solution of each PDI was reduced using TCEP (5 mM final concentration) for 90 min at room temperature. […] After incubation, an equal volume of the 2× reaction mixture (consisting of DTT 50 μM and human insulin 0.32 mM) was added. Protein activity was evaluated by monitoring the increase in turbidity of the solutions at 600 nm.
In both assays, the inhibition constants were extrapolated by GraphPad Prism 8.0 software (GraphPad Software, San Diego, CA, USA), plotting the obtained data as logarithm dose–response curves.

The next experiment deals with T98G cells. The experiment can be described thus: Cell counting (crystal violet). In kind it is cell-based, human. As for the experimental part: (§4) The number of cells was evaluated after 24 h, 48 h, and 72 h of treatment with punicalin at the concentration of 5 µM and 20 µM (Figure 5b). […] However, an increase in the cell number occurred after 72 h of treatment with punicalin at a 5 µM concentration.
(§5) T98G and U-87 MG cells were seeded into 12-well plates (70,000 cells/well) and treated with 5 µM and 20 µM concentrations of punicalin for 24 h, 48 h, and 72 h. At the end of incubation, the cells were washed with PBS (Sigma-Aldrich, cat. D8662), fixed with cold methanol for 20 min, stained with 0.1% crystal violet in methanol/PBS (ratio 1:4) at room temperature for 1 h, and washed again in PBS. To estimate the number of cells remaining in each well, the crystal violet was solubilized by adding a methanol/water solution (50% v/v) and the absorbance at 595 nm was measured.

Another experiment deals with U87 MG cells. The experiment can be described thus: Cell counting (crystal violet). In kind it is cell-based, human. To be noted: 5 µM and 20 µM, 24 h, 48 h, 72 h. The procedure:
as §4, §5

Consider 1 compound from PMC11476419, “Analysis of Punicalin and Punicalagin Interaction with PDIA3 and PDIA1” (International Journal of Molecular Sciences, 2024).

T1 sequence (P07237 18-508): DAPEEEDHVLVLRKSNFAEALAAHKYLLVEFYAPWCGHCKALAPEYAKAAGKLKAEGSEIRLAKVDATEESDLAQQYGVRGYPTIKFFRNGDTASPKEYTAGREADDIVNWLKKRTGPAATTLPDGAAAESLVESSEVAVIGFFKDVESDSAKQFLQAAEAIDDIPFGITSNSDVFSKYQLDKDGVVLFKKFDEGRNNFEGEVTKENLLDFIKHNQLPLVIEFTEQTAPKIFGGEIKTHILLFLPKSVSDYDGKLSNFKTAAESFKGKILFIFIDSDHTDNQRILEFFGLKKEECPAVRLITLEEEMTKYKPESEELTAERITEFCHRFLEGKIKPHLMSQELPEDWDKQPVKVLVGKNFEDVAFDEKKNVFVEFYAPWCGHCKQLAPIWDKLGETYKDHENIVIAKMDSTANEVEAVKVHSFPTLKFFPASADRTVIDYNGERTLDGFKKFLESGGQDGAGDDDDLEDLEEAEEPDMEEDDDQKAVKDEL

Take `O=C1OC[C@H]2OC(O)[C@H](O)[C@@H](O)[C@@H]2OC(=O)c2cc(O)c(O)c(O)c2-c2c(O)c(O)c3oc(=O)c4c(c(O)c(O)c5oc(=O)c2c3c54)-c2c1cc(O)c(O)c2O` (mixture of isomers) [Punicalin, punicalin]: the “Stern–Volmer constant (KSV)” value at PDIA1 [1] (reduced PDIA1 0.1 × 10^−6 M, pH 7.4, 25 °C, mean and SEM) was 64.0 ± 0.4 M^−1 × 10^3; at PDIA3 (reduced PDIA3 0.1 × 10^−6 M, pH 7.4, 25 °C, mean and SEM), 73.7 ± 0.7 M^−1 × 10^3. For the same compound, the Kd (as a rule, a measure of binding affinity in units of concentration) was 16 µM on PDIA1 [1] (reduced PDIA1, pH 7.4, 25 °C, estimated from quenching data, read-out: dissociation constant (Kd)) and 14 µM on PDIA3 (reduced PDIA3, pH 7.4, 25 °C, estimated from quenching data, read-out: dissociation constant (Kd)). In addition, the IC50 (usually the concentration that inhibits the measured activity by half) against PDIA1 [2] is above 250 µM. The “kind of effect on cells” value with T98G cells (5 µM) is reported as “preferential cytostatic effect”; in the experiment on T98G cells (20 µM) it was “cytotoxic”. Moreover, the “effect on cell number” value is reported as “marked reduction in the T98G cell number” in the experiment on T98G cells (48 h, 5 µM and 20 µM); “the effect is evident only at the highest concentration used” with U87 MG cells.
